Paper PMC5161434 (EBioMedicine, 2016)

How the values were obtained:
[1] = test system: A2780; experiment: CCK-8 cell viability, A2780 ovarian cancer cells; type: cell-based, human; settings: for IC50: Homo sapiens, A2780, 48 h, read-out: IC50 (cell growth inhibition), A2780
[2] = test system: OVCAR3; experiment: CCK-8 cell viability, OVCAR3 ovarian cancer cells; type: cell-based, human; settings: for IC50: Homo sapiens, OVCAR-3, 48 h, read-out: IC50 (cell growth inhibition), OVCAR-3
[3] = test system: A2780 cells; experiment: PI staining cell-cycle distribution, A2780; type: cell-based, human; settings: 24 h
[4] = test system: OVCAR3 cells; experiment: PI staining cell-cycle distribution, OVCAR3; type: cell-based, human; settings: 24 h
[5] = test system: A2780 cells; experiment: Western blotting of apoptosis, cell cycle and EMT proteins, A2780; type: cell-based, human; settings: 24 h; for cleavage of caspase 3 and PARP: ARS4 1, 5, 10 μM, DHA or melphalan 10 μM
[6] = test system: OVCAR3 cells; experiment: Western blotting of apoptosis, cell cycle and EMT proteins, OVCAR3; type: cell-based, human; settings: 24 h; for cleavage of caspase 3 and PARP: ARS4 1, 5, 10 μM, DHA or melphalan 10 μM
[7] = Host toxicity in tumor-bearing mice; type: in vivo, BALB/c nude mice; settings: 25 mg/kg daily, end of experiment; for organ weights (liver, kidneys, spleen, lung): versus vehicle

For `C[C@H]1[C@@H](O)O[C@@H]2O[C@@]3(C)CC[C@H]4[C@H](C)CC[C@@H]1[C@@]24OO3` [Compound 1, Dihydroartemisinin], the “growth of cells after 12 h of exposure (CCK8)” value ([1]; A2780, 12 h, data not shown) was “no apparent inhibition of growth”, the IC50 [1] was 4.75 µM and the IC50 [2] was 5.65 µM. For the same compound, the “growth of cells after 12 h of exposure (CCK8)” value ([2]; OVCAR3, 12 h, data not shown) was “no apparent inhibition of growth”, the “effect on cell-cycle progression” value [3] was “modest arrest in the G0/G1 phase” and the “effect on cell-cycle progression” value [4] was “modest arrest in the G0/G1 phase”. The “cleavage of caspase 3 and PARP” value [5] was “less effect” and the “cleavage of caspase 3 and PARP” value [6] was “less effect”.

With `N.N.O=C([O-])C1(C(=O)[O-])CCC1.[Pt+2]` [Carboplatin] the “organ weights (liver, kidneys, spleen, lung)” value [7] was “loss”.

With `N[C@@H](Cc1ccc(N(CCCl)CCCl)cc1)C(=O)O` [Compound 3, melphalan] the IC50 [1] was 23.2 µM, the IC50 [2] was 11.6 µM and the “effect on cell-cycle progression” value [3] was “arrested cells in the S phase”. The “effect on cell-cycle progression” value [4] was “arrested cells in the S phase”, the “EMT phenotype (E-cadherin, Vimentin, Snail, Slug expression)” value [5] was “no obvious effect” and the “cleavage of caspase 3 and PARP” value [5] was “less effect”. The “EMT phenotype (E-cadherin, Vimentin, Snail, Slug expression)” value [6] was “no obvious effect”, the “cleavage of caspase 3 and PARP” value [6] was “less effect” and the “histological findings (H&E; liver, kidneys, spleen, lung)” value [7] was “substantial necrosis of liver and spleen parenchymal cells”. For the same compound, the “organ weights (liver, kidneys, spleen, lung)” value [7] was “Severe decreases in organ weight”.
